What follows are compounds tested on Hsc70 (assay: Detection of Hsc70 gene expression level upon action of compound on 2.2.15 cells (real-time fluorescent quantified PCR)). Details: 2.2.15 cells; down-regulation of liver cell Hsc70 gene.
Format: cell-based
Design: Hsc70 mRNA / Hsc70 down-regulation rate (%): unit not given here
Description: 2.2.15 cells (purchased from Vertex Pharmaceutical Co., USA) in a number of 1×10^6 were inocubated to 6-well plate, cultured in a culture medium containing 10% fetal calf serum for 24 hr, the original culture medium was discarded, replaced with a culutre medium containing 400 μg/ml OMTR, which was used as control. Compounds were firstly dissolved in MEM to form 20 mg/ml mother liquid, which was diluted with culture medium when used and then applied to cells. The compounds of Examples 1-114 were separately used for treatment for 12, 24, 36 hr, then cells were harvested for extraction of RNA and DNA, then the changes of Hsc70 mRNA and HBV DNA were detected by real-time fluorescent quantified PCR.
For O=C1CCC[C@@H]2[C@H]3CCC[N+]4([O-])CCC[C@@H](CN12)[C@@H]34 (some centres unmarked) [Compound 1, reference compound], the “Hsc70 mRNA” value was 55.0 ± 0.10. With O=C1CCC[C@@H]2[C@H]3CCCN4CCC[C@@H](CN12)[C@@H]34 [Compound 2, reference compound] the “Hsc70 mRNA” value was 52.4 ± 0.17. For O=C(OC1CC2C3CCCN4CCCC(CN2C(=O)C1O)C34)c1ccc(F)c([N+](=O)[O-])c1 (centres unmarked) [Compound 9i, 14-hydroxyl-13-(4-fluoro-3-nitro)benzoyloxy matrine], the “Hsc70 mRNA” value was 43.4 ± 0.08. O=C1CC(OCc2ccccc2)CC2C3CCCN4CCCC(CN12)C34 (centres unmarked) [Compound 6c, 13-benzyloxy matrine] was tested, and the “Hsc70 mRNA” value was 24.7 ± 0.10. In the case of O=C1CC(C[N+](=O)[O-])CC2C3CCCN4CCCC(CN12)C34 (centres unmarked) [Compound 7a, 13-nitromethyl matrine], the “Hsc70 mRNA” value is reported as 35.8 ± 0.09. For O=C(OC1CC(=O)N2C[C@@H]3CCCN4CCC[C@@H]([C@H]34)[C@H]2C1)c1ccccc1 (some centres unmarked) [Compound 6d, 13-benzoyloxy matrine], the “Hsc70 mRNA” value was 51.0 ± 0.11. With O=C(OC1CC2C3CCCN4CCCC(CN2C(=O)C1O)C34)c1ccccc1 (centres unmarked) [Compound 9h, 14-hydroxyl-13-benzoyloxy matrine] the “Hsc70 mRNA” value was 34.5 ± 0.10. With 13,14-diacetyloxy matrine [Compound 9c] the “Hsc70 mRNA” value was <10. With COC1CC(=O)N2CC3CCCN4CCCC(C34)C2C1 (centres unmarked) [Compound 6a, 13-methoxy matrine] the “Hsc70 mRNA” value was 48.6 ± 0.16. With O=C1C=CCC2C3CCCN4CCCC(CN12)C34 (centres unmarked) [Compound 3, reference compound] the “Hsc70 mRNA” value was 21.6 ± 0.13. O=C(OC1CC2C3CCCN4CCCC(CN2C(=O)C1OC(=O)c1ccc(F)c([N+](=O)[O-])c1)C34)c1ccc(F)c([N+](=O)[O-])c1 (centres unmarked) [Compound 9d, 13,14-di(4-fluoro-3-nitro) benzoyloxy matrine] was tested, and the “Hsc70 mRNA” value was 30.8 ± 0.06. COC1CC2C3CCCN4CCCC(CN2C(=O)C1OC)C34 (centres unmarked) [Compound 9a, 13,14-dimethoxy matrine] was tested, and the “Hsc70 mRNA” value was 39.3 ± 0.20. With O=C1C=CCC2C3CCC[N+]4([O-])CCCC(CN12)C34 (centres unmarked) [Compound 4, oxidized sophocarpine] the “Hsc70 mRNA” value was 15.3 ± 0.21. With CNC1CC(=O)N2C[C@@H]3CCCN4CCC[C@@H]([C@H]34)[C@H]2C1 (some centres unmarked) [Compound 7b, 13-methylaminomatrine] the “Hsc70 mRNA” value was 40.1 ± 0.09. For O=C(CCl)OC1CC2C3CCCN4CCCC(CN2C(=O)C1O)C34 (centres unmarked) [Compound 9f, 14-hydroxyl-13-chloroacetyloxy matrine], the “Hsc70 mRNA” value was 88.2 ± 0.21. O=C1C(OCc2ccccc2)C(OCc2ccccc2)CC2C3CCCN4CCCC(CN12)C34 (centres unmarked) [Compound 9b, 13,14-dibenzyloxy matrine] was tested, and the “Hsc70 mRNA” value was 45.4 ± 0.11.

Same assay, conditions: 2.2.15 cells; relative to OMT (= 1)
In the case of O=C(O)CCCC1C2CCC[N+]3([O-])CCCC(CN1Cc1ccccc1)C23 (centres unmarked) [DM-1081, N-benzyl oxymatrinic acid], the “Hsc70 inhibition rate (down-regulation of Hsc70 expression activity, expressed in relative OMT ratio)” value is reported as 1.26. With O=C(O)CCCC1C2CCCN3CCCC(CN1C(=O)CO)C23 (centres unmarked) [DM-105, N-(2-hydroxyl)acetylmatrinic acid] the “Hsc70 inhibition rate (down-regulation of Hsc70 expression activity, expressed in relative OMT ratio)” value was <10. For O=C(O)CCCC1C2CCCN3CCCC(CN1S(=O)(=O)c1ccccc1)C23 (centres unmarked) [DM-109, N-benzenesulfonyl matrinic acid], the “Hsc70 inhibition rate (down-regulation of Hsc70 expression activity, expressed in relative OMT ratio)” value was <10. With O=CN1CC2CCCN3CCCC(C1CCCC(=O)O)C23 (centres unmarked) [DM-106a, N-formylmatrinic acid] the “Hsc70 inhibition rate (down-regulation of Hsc70 expression activity, expressed in relative OMT ratio)” value was −54. C[N+]1(C)CC2CCCN3CCCC(C23)C1CCCC(=O)[O-] (centres unmarked) [DM-111, N,N-dimethyl matrinic acid] was tested, and the “Hsc70 inhibition rate (down-regulation of Hsc70 expression activity, expressed in relative OMT ratio)” value was 0.25. With O=C(O)CCCC1C2CCCN3CCCC(CN1C(=O)C=Cc1ccccc1)C23 (centres unmarked) [DM-110, N-cinnamoyl matrinic acid] the “Hsc70 inhibition rate (down-regulation of Hsc70 expression activity, expressed in relative OMT ratio)” value was <10. For N,N-dimethyl oxymatrinic acid [DM-1111], the “Hsc70 inhibition rate (down-regulation of Hsc70 expression activity, expressed in relative OMT ratio)” value was −0.25. With O=C(O)CCCC1C2CCCN3CCCC(CN1C(=O)CCl)C23 (centres unmarked) [DM-104, N-chloroacetyl matrinic acid] the “Hsc70 inhibition rate (down-regulation of Hsc70 expression activity, expressed in relative OMT ratio)” value was −7. In the case of COc1ccc(CN2CC3CCC[N+]4([O-])CCCC(C2CCCC(=O)O)C34)cc1 (centres unmarked) [DM-1221, N-(4-methoxybenzyl) oxymatrinic acid], the “Hsc70 inhibition rate (down-regulation of Hsc70 expression activity, expressed in relative OMT ratio)” value is reported as 1.34. For O=C(O)CCCC1C2CCCN3CCCC(CN1CC1CC1)C23 (centres unmarked) [DM-115, N-cyclopropylmethyl matrinic acid], the “Hsc70 inhibition rate (down-regulation of Hsc70 expression activity, expressed in relative OMT ratio)” value was −33. For N-oxidized kurarinol [DM-2001], the “Hsc70 inhibition rate (down-regulation of Hsc70 expression activity, expressed in relative OMT ratio)” value was −0.42. In the case of O=C(O)CCCC1NCC2CCC[N+]3([O-])CCCC1C23 (centres unmarked) [DM-1001, N-oxidized matrinic acid], the “Hsc70 inhibition rate (down-regulation of Hsc70 expression activity, expressed in relative OMT ratio)” value is reported as 0.92. For O=C1CCC[C@@H]2[C@H]3CCC[N+]4([O-])CCC[C@@H](CN12)[C@@H]34 (some centres unmarked) [OMT, Oxymatrine, reference compound], the “Hsc70 inhibition rate (down-regulation of Hsc70 expression activity, expressed in relative OMT ratio)” value was 1. O=C(O)CCCC1C2CCCN3CCCC(CN1Cc1ccccc1)C23 (centres unmarked) [DM-108, N-benzylmatrinic acid] was tested, and the “Hsc70 inhibition rate (down-regulation of Hsc70 expression activity, expressed in relative OMT ratio)” value was 1.25. In the case of Cc1cccc(OC(C)C(=O)N2CC3CCCN4CCCC(C34)C2CCCC(=O)O)c1 (centres unmarked) [DM-106, N-(2-m-methylphenoxy)propionylmatrinic acid], the “Hsc70 inhibition rate (down-regulation of Hsc70 expression activity, expressed in relative OMT ratio)” value is reported as 1.67. In the case of CCCN1CC2CCCN3CCCC(C1CCCC(=O)O)C23 (centres unmarked) [DM-113, N-propyl matrinic acid], the “Hsc70 inhibition rate (down-regulation of Hsc70 expression activity, expressed in relative OMT ratio)” value is reported as <10. O=C(O)CCCC1C2CCC[N+]3([O-])CCCC(CN1CC1CC1)C23 (centres unmarked) [DM-1151, N-cyclopropylmethyl oxymatrinic acid] was tested, and the “Hsc70 inhibition rate (down-regulation of Hsc70 expression activity, expressed in relative OMT ratio)” value was 0.52. In the case of COc1cccc(CN2CC3CCCN4CCCC(C2CCCC(=O)O)C34)c1 (centres unmarked) [DM-142, N-(3-methoxy)benzyl matrinic acid], the “Hsc70 inhibition rate (down-regulation of Hsc70 expression activity, expressed in relative OMT ratio)” value is reported as 1.07. For O=C(O)CCCC1C2CCCN3CCCC(CN1C(=O)c1ccccc1)C23 (centres unmarked) [DM-107, N-benzoyl matrinic acid], the “Hsc70 inhibition rate (down-regulation of Hsc70 expression activity, expressed in relative OMT ratio)” value was 1.04. For C=C(C)[C@H](CCC(C)(C)O)Cc1c(O)cc(OC)c2c1O[C@H](c1ccc(O)cc1O)CC2=O [DM-200, kurarinol], the “Hsc70 inhibition rate (down-regulation of Hsc70 expression activity, expressed in relative OMT ratio)” value was 0.81. With CCN1CC2CCCN3CCCC(C1CCCC(=O)O)C23 (centres unmarked) [DM-112, N-ethyl matrinic acid] the “Hsc70 inhibition rate (down-regulation of Hsc70 expression activity, expressed in relative OMT ratio)” value was <10. With O=C(O)CCCC1C2CCCN3CCCC(CN1CCO)C23 (centres unmarked) [DM-117, N-(2-hydroxyl)ethyl matrinic acid] the “Hsc70 inhibition rate (down-regulation of Hsc70 expression activity, expressed in relative OMT ratio)” value was 0.84. Cc1ccc(S(=O)(=O)N2CC3CCCN4CCCC(C34)C2CCCC(=O)O)cc1 (centres unmarked) [DM-102, N-(4-methylbenzenesulfonyl) matrinic acid] was tested, and the “Hsc70 inhibition rate (down-regulation of Hsc70 expression activity, expressed in relative OMT ratio)” value was 1.1. In the case of Cc1cccc(OCC(=O)N2CC3CCCN4CCCC(C34)C2CCCC(=O)O)c1 (centres unmarked) [DM-104a, N-(2-m-methylphenoxy)acetyl matrinic acid], the “Hsc70 inhibition rate (down-regulation of Hsc70 expression activity, expressed in relative OMT ratio)” value is reported as −2.98. In the case of O=C1CCC[C@@H]2[C@H]3CCCN4CCC[C@@H](CN12)[C@@H]34 [MT, Matrine], the “Hsc70 inhibition rate (down-regulation of Hsc70 expression activity, expressed in relative OMT ratio)” value is reported as −16.

— patent US20130190345A1, “MATRINIC ACID/MATRINE DERIVATIVES AND PREPARATION METHODS AND USES THEREOF” (priority 2010, published 2013)
